# Data as given in patent US10377774B2 (JINAN UNIVERSITY, priority 2013, dated 2019).
# Marks after values point to notes of the source that are not given here.
# Assays:
# [1] = tested on: human non-small-cell lung cancer cell line A549; assay: MTT cell growth inhibition, A549; type: cell-based; settings: Homo sapiens; A549, MTT assay, 72 h; read-out: IC50, growth of tumor cell line
# Source text: (§3) Experimental method: Cell lines (human non-small-cell lung cancer cell line A549, human colon cancer cell line LOVO, human nasopharyngeal carcinoma cell line CNE-2, human liver cancer cell line HepG2, human cervical carcinoma cell line Hela, human breast cancer cell lines MCF-7 and MDA-MB-231, human gastric carcinoma cell line NCI-N87, human prostatic cancer cell lines PC-3 and DU145, human leukemia cell line K562, human melanoma cell line A375, human neuroblastoma cell line SH-SY5H, human promyelocytic leukemia cell line HL-60, 5-FU-resistant human hepatocellular carcinoma cell line BEL-7402/5-Fu, doxorubicin-resistant hepatocellular carcinoma cell line HepG2/ADM, doxorubicin-resistant human breast cancer cell lines MCF-7/ADR) at logarithmic phase were resuspended in RPMI 1640 medium (containing 10% fetal bovine serum, 100 U/mL penicillin-streptomycin). Then, 100 μL of cells (cell concentration was 5×10^5/mL) were seeded into 96 wells plate. After 24 h incubation at 37° C. with 5% CO2, tested compounds were added (the control group without compound) for an additional 72 h incubation. After that, 30 μL of MTT [3-(4,5-Dimethylthiazol-2-yl)-2,5-diphenyltetrazolium bromide] solution (5 mg/mL) was added into each well and incubated for another 4 h at 37° C. and then the formazan crystals were solubilized with 100 μL DMSO. Finally, absorbance of each well was determined at 570 nm by a microplate reader (Thermo).
# (§4) The concentration required to inhibit cell growth by 50% (IC50) was calculated from survival curves.
# [2] = tested on: human colon cancer cell line LOVO; assay: MTT cell growth inhibition, LOVO; type: cell-based; settings: Homo sapiens; LOVO (FAPα positive), MTT assay, 72 h; read-out: IC50, growth of tumor cell line
# Source text: as §3, §4
# [3] = tested on: human nasopharyngeal carcinoma cell line CNE-2; assay: MTT cell growth inhibition, CNE-2; type: cell-based; settings: Homo sapiens; CNE-2, MTT assay, 72 h; read-out: IC50, growth of tumor cell line
# [4] = tested on: human liver cancer cell line HepG2; assay: MTT cell growth inhibition, HepG2; type: cell-based; settings: Homo sapiens; HepG2, MTT assay, 72 h; read-out: IC50, growth of tumor cell line
# [5] = tested on: human cervical carcinoma cell line Hela; assay: MTT cell growth inhibition, Hela; type: cell-based; settings: Homo sapiens, MTT assay, 72 h, read-out: IC50, growth of tumor cell line
# Source text: as §3, §4
# [6] = tested on: human breast cancer cell line MCF-7; assay: MTT cell growth inhibition, MCF-7; type: cell-based; settings: Homo sapiens, MCF7; MCF-7, MTT assay, 72 h; read-out: IC50, growth of tumor cell line
# [7] = tested on: human breast cancer cell line MDA-MB-231; assay: MTT cell growth inhibition, MDA-MB-231; type: cell-based; settings: Homo sapiens; MDA-MB-231, MTT assay, 72 h; read-out: IC50, growth of tumor cell line
# Source text: as §3, §4
# [8] = tested on: human gastric carcinoma cell line NCI-N87; assay: MTT cell growth inhibition, NCI-N87; type: cell-based; settings: Homo sapiens; NCI-N87, MTT assay, 72 h; read-out: IC50, growth of tumor cell line
# Source text: as §3, §4
# [9] = tested on: human prostatic cancer cell line PC-3; assay: MTT cell growth inhibition, PC-3; type: cell-based; settings: Homo sapiens; PC-3, MTT assay, 72 h; read-out: IC50, growth of tumor cell line
# Source text: as §3, §4
# [10] = tested on: human prostatic cancer cell line DU145; assay: MTT cell growth inhibition, DU-145; type: cell-based; settings: Homo sapiens; DU-145, MTT assay, 72 h; read-out: IC50, growth of tumor cell line
# [11] = tested on: human leukemia cell line K562; assay: MTT cell growth inhibition, K562; type: cell-based; settings: Homo sapiens; K562, MTT assay, 72 h; read-out: IC50, growth of tumor cell line
# [12] = tested on: human melanoma cell line A375; assay: MTT cell growth inhibition, A375; type: cell-based; settings: Homo sapiens, A-375; A375, MTT assay, 72 h; read-out: IC50, growth of tumor cell line
# Source text: as §3, §4
# [13] = tested on: human neuroblastoma cell line SH-SY5H; assay: MTT cell growth inhibition, SH-SY5H; type: cell-based; settings: Homo sapiens, Neuroblastoma cell, MTT assay, 72 h, read-out: IC50, growth of tumor cell line
# [14] = tested on: human promyelocytic leukemia cell line HL-60; assay: MTT cell growth inhibition, HL-60; type: cell-based; settings: Homo sapiens; HL-60, MTT assay, 72 h; read-out: IC50, growth of tumor cell line
# Source text: as §3, §4
# [15] = tested on: 5-FU-resistant human hepatocellular carcinoma cell line BEL-7402/5-Fu; assay: MTT cell growth inhibition, BEL-7402/5-Fu; type: cell-based; settings: Homo sapiens, Bel7402/5-FU, MTT assay, 72 h, read-out: IC50, growth of tumor cell line
# Source text: as §3, §4
# [16] = tested on: doxorubicin-resistant hepatocellular carcinoma cell line HepG2/ADM; assay: MTT cell growth inhibition, HepG2/ADM; type: cell-based, human; settings: Homo sapiens, MTT assay, 72 h, read-out: IC50, growth of tumor cell line
# MDA-MB-231 xenografts = MDA-MB-231 xenografts in nude mice; type: in vivo, BALB/nu/nu mice; settings: MDA-MB-231 xenograft nude mice
# Experimental: (§1) Experimental method: The MDA-MB-231 cells at logarithmic phase were digested and washed twice with PBS. Then, 100 μL cells (1×10^7) were inoculated subcutaneously on the backs of female BALB/nu/nu mice. After tumors grew to 70˜100 mm^3, the mice were divided randomly into saline group (control group), vinca alkaloids groups (VLB, CCRB, CCFN, CCXJ) and vinca alkaloid derivatives groups (JJ-CCJ, BX-CCJ, JJ-CCRB, BX-CCRB, JJ-CCFN, BX-CCFN, JJ-CCXJ and BX-CCXJ), with six mice per group. 1 mg/kg drugs were injected intraperitoneally every two days, meanwhile body weight and tumor sizes were measured. Experiment was ended after 8 times of drug administration, then tumor and organs were stripped. Tumor volumes were measured using the following formula: V=½(ab^2), whereas a refers to the longest diameter and b is the shortest diameter.
# HepG2 xenografts = HepG2 xenografts in nude mice; type: in vivo; settings: HepG2 xenograft nude mice
# Experimental: as §1
# (§2) Tumor xenograft models of HepG2, LOVO, K562 and HL-60 cell lines were performed as the method described above.
# LOVO xenografts = LOVO xenografts in nude mice; type: in vivo; settings: LOVO xenograft nude mice
# Experimental: as §1, §2
# K562 xenografts = K562 xenografts in nude mice; type: in vivo; settings: K562 xenograft nude mice
# Experimental: as §1, §2
# HL-60 xenografts = HL-60 xenografts in nude mice; type: in vivo; settings: HL-60 xenograft nude mice
# Experimental: as §1, §2
# [17] = MTT cytotoxicity on normal cells, LO2; settings: human, LO2 cells (human normal liver cells)
# [18] = MTT cytotoxicity on normal cells, HUVEC; settings: human, HUVEC (human umbilical vein endothelial cells)
# Experimental: Then, 100 μL of cells (cell concentration was 5×10^5/mL) were seeded into 96 wells plate. After 24 h incubation at 37° C. with 5% CO2, tested compounds were added (the control group without compound) for an additional 72 h incubation. After that, 30 μL of MTT [3-(4,5-Dimethylthiazol-2-yl)-2,5-diphenyltetrazolium bromide] solution (5 mg/mL) was added into each well and incubated for another 4 h at 37° C. and then the formazan crystals were solubilized with 100 μL DMSO. Finally, absorbance of each well was determined at 570 nm by a microplate reader (Thermo).
# The standard curve was drew with compound concentrations as the abscissa and cell growth inhibition rates as the ordinate. The concentration required to inhibit cell growth by 50% (IC50) was calculated from survival curves.
# Experimental method: In vitro cytotoxicities of vinca alkaloids, hydrazinolyzed vinca alkaloids and vinca alkaloid dipeptide derivatives on human normal liver cells LO2 and human umbilical vein endothelial cells HUVEC were detected according to the method of Example 2.
# [19] = 1 mg/kg i.p. every two days, 8 administrations
SMILES,IC50 [1] [µM],IC50 [2] [µM],IC50 [3] [µM],IC50 [4] [µM],IC50 [5] [µM],IC50 [6] [µM],IC50 [7] [µM],IC50 [8] [µM],IC50 [9] [µM],IC50 [10] [µM],IC50 [11] [µM],IC50 [12] [µM],IC50 [13] [µM],IC50 [14] [µM],IC50 [15] [µM],IC50 [16] [µM],further results
"CCC1=C[C@@H]2CN(C1)Cc1c([nH]c3ccccc13)[C@@](C(=O)OC)(c1cc3c(cc1OC)N(C)[C@H]1[C@@](O)(C(=O)NN)[C@H](O)[C@]4(CC)C=CCN5CC[C@]31[C@@H]54)C2 [JJ-CCRB, hydrazinolyzed vinorelbine]",0.0731 ± 0.00236,0.121 ± 0.0103,0.1 ± 0.0059,0.08931 ± 0.00071,0.0613 ± 0.00312,0.122 ± 0.00575,0.101 ± 0.00765,0.089 ± 0.00334,0.0659 ± 0.00305,0.0604 ± 0.00701,0.0497 ± 0.00339,0.0204 ± 0.00285,0.0329 ± 0.00327,0.0468 ± 0.00541,0.143 ± 0.00857,0.182 ± 0.00438,Anti-tumor rate (%) (MDA-MB-231 xenografts; [19]): 77.39** %; Body weight (g) Post-dose (MDA-MB-231 xenografts; [19]): 16.7 ± 1.4 g; Tumor weight (MDA-MB-231 xenografts; [19]): 0.59 ± 0.18 g; Body weight (g) Pre-dose (MDA-MB-231 xenografts; before dosing): 21.0 ± 2.7 g; Anti-tumor rate (%) (HepG2 xenografts; 1 mg/kg): 75.29** %; Body weight (g) Post-dose (HepG2 xenografts; 1 mg/kg): 17.0 ± 0.8 g; Tumor weight (HepG2 xenografts; 1 mg/kg): 0.63 ± 0.29 g; Body weight (g) Pre-dose (HepG2 xenografts; before dosing): 21.9 ± 1.6 g; Anti-tumor rate (%) (LOVO xenografts; 1 mg/kg): 69.69** %; Body weight (g) Post-dose (LOVO xenografts; 1 mg/kg): 16.4 ± 0.7 g; Tumor weight (LOVO xenografts; 1 mg/kg): 0.87 ± 0.16 g; Body weight (g) Pre-dose (LOVO xenografts; before dosing): 23.2 ± 2.1 g; Anti-tumor rate (%) (K562 xenografts; 1 mg/kg): 59.52** %; Body weight (g) Post-dose (K562 xenografts; 1 mg/kg): 18.2 ± 0.5 g; Tumor weight (K562 xenografts; 1 mg/kg): 0.68 ± 0.20 g; Body weight (g) Pre-dose (K562 xenografts; before dosing): 21.8 ± 1.4 g; Anti-tumor rate (%) (HL-60 xenografts; 1 mg/kg): 65.38** %; Body weight (g) Post-dose (HL-60 xenografts; 1 mg/kg): 17.1 ± 0.3 g; Tumor weight (HL-60 xenografts; 1 mg/kg): 0.72 ± 0.21 g; Body weight (g) Pre-dose (HL-60 xenografts; before dosing): 19.5 ± 1.3 g
"CCC1=C[C@@H]2CN(C1)Cc1c([nH]c3ccccc13)[C@@](C(=O)OC)(c1cc3c(cc1OC)N(C)[C@H]1[C@@](O)(C(=O)OC)[C@H](OC(C)=O)[C@]4(CC)C=CCN5CC[C@]31[C@@H]54)C2 [Vinorelbine, reference compound]",0.0145 ± 0.00107,0.00786 ± 0.00016,0.00903 ± 0.00035,0.00834 ± 0.00053,0.0114 ± 0.00104,0.0495 ± 0.00201,0.0397 ± 0.00579,0.0358 ± 0.00657,0.0237 ± 0.00431,0.0199 ± 0.00057,0.0123 ± 0.00054,0.00564 ± 0.00095,0.00478 ± 0.00084,0.00868 ± 0.00135,0.0361 ± 0.00478,0.0244 ± 0.00382,IC50 at 72 h [17]: 0.00097 ± 8e-05 µM; IC50 at 72 h [18]: 0.00113 ± 0.00056 µM
